Source: PubChem BioAssay AID2060489 (Molecular Pharmacology Branch, DTP, NCI, 2025)

Tested on: 922993-354-T-J3-PDC complex spheroids, viability
Experiment: Anticancer human tumor 922993-354-T-J3-PDC patient-derived endometrial carcinoma cell line growth inhibition [GQUAD]
Details: for IC50: curve of first compound; for viability, T/C: stronger effect = lower value; active means viability on the fitted dose curve at most 10% of control; inactive means the rest
Procedure, shortened: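 Multi-cell-type spheroids of tumor cells with HUVEC and mesenchymal stem cells, treated with drug combinations. Concentrations descend in half-log steps from near clinical Cmax, or from 10 microM where Cmax is unknown; viability read-out.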

[1] = second compound 0.0316 µM, first compound 0.0316 µM
[2] = second compound 0.0316 µM, first compound 0.1 µM
[3] = second compound 0.0316 µM, first compound 0.316 µM
[4] = second compound 0.0316 µM, first compound 1 µM
[5] = second compound 0.0316 µM, first compound 3.16 µM
[6] = second compound 0.0316 µM, first compound 10 µM
[7] = second compound 0.1 µM, first compound 0.0316 µM
[8] = second compound 0.1 µM, first compound 0.1 µM
[9] = second compound 0.1 µM, first compound 0.316 µM
[10] = second compound 0.1 µM, first compound 1 µM
[11] = second compound 0.1 µM, first compound 3.16 µM
[12] = second compound 0.1 µM, first compound 10 µM
[13] = second compound 0.316 µM, first compound 0.0316 µM
[14] = second compound 0.316 µM, first compound 0.1 µM
[15] = second compound 0.316 µM, first compound 0.316 µM
[16] = second compound 0.316 µM, first compound 1 µM
[17] = second compound 0.316 µM, first compound 3.16 µM
[18] = second compound 0.316 µM, first compound 10 µM
[19] = second compound 1 µM, first compound 0.0316 µM
[20] = second compound 1 µM, first compound 0.1 µM
[21] = second compound 1 µM, first compound 0.316 µM
[22] = second compound 1 µM, first compound 1 µM
[23] = second compound 1 µM, first compound 3.16 µM
[24] = second compound 1 µM, first compound 10 µM
[25] = second compound 3.16 µM, first compound 0.0316 µM
[26] = second compound 3.16 µM, first compound 0.1 µM
[27] = second compound 3.16 µM, first compound 0.316 µM
[28] = second compound 3.16 µM, first compound 1 µM
[29] = second compound 3.16 µM, first compound 3.16 µM
[30] = second compound 3.16 µM, first compound 10 µM
[31] = second compound 10 µM, first compound 0.0316 µM
[32] = second compound 10 µM, first compound 0.1 µM
[33] = second compound 10 µM, first compound 0.316 µM
[34] = second compound 10 µM, first compound 1 µM
[35] = second compound 10 µM, first compound 3.16 µM
[36] = second compound 10 µM, first compound 10 µM
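Further: spheroids exposed to compounds for seven days.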
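Wherever viability, T/C is given: 100% = DMSO vehicle control viability.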

C=CCn1c(=O)c2cnc(Nc3ccc(N4CCN(C)CC4)cc3)nc2n1-c1cccc(C(C)(C)O)n1 + CN(C)c1ccc(Nc2c3ccc(NC(=O)CCN4CCCC4)cc3nc3cc(NC(=O)CCN4CCCC4)ccc23)cc1
6.53 µM: IC50 (second compound 10 µM)
inactive: viability, T/C [1] 103% | viability, T/C [2] 80.9% | viability, T/C [3] 87.4% | viability, T/C [4] 74.5% | viability, T/C [5] 67.7% | viability, T/C [6] 12.4% | viability, T/C [7] 95.3% | viability, T/C [8] 87.1% | viability, T/C [9] 88% | viability, T/C [10] 88.6% | viability, T/C [11] 61.8% | viability, T/C [12] 13.9% | viability, T/C [13] 93.6% | viability, T/C [14] 101% | viability, T/C [15] 73.2% | viability, T/C [16] 81.8% | viability, T/C [17] 65.6% | viability, T/C [18] 16.9% | viability, T/C [19] 110% | viability, T/C [20] 121% | viability, T/C [21] 95.3% | viability, T/C [22] 96.5% | viability, T/C [23] 79.1% | viability, T/C [24] 17% | viability, T/C [25] 100% | viability, T/C [26] 85.5% | viability, T/C [27] 113% | viability, T/C [28] 104% | viability, T/C [29] 74.6% | viability, T/C [30] 16.6% | viability, T/C [31] 111% | viability, T/C [32] 109% | viability, T/C [33] 108% | viability, T/C [34] 110% | viability, T/C [35] 87.2% | viability, T/C [36] 28.2%
4.2 µM: IC50 (second compound 0.0316 µM) | IC50 (second compound 0.1 µM)
5.16 µM: IC50 (second compound 3.16 µM)
5.26 µM: IC50 (second compound 1 µM)
4.34 µM: IC50 (second compound 0.316 µM)

CC(C)n1c(=O)n(C)c2cnc3cc(F)c(-c4ccc(OCCCN5CCCCC5)nc4)cc3c21 + CN(C)c1ccc(Nc2c3ccc(NC(=O)CCN4CCCC4)cc3nc3cc(NC(=O)CCN4CCCC4)ccc23)cc1
7.04 µM: IC50 (second compound 3.16 µM)
1.82 µM: IC50 (second compound 10 µM)
> 10 µM: IC50 (second compound 0.0316 µM) | IC50 (second compound 0.1 µM) | IC50 (second compound 0.316 µM) | IC50 (second compound 1 µM)
inactive: viability, T/C [1] 118% | viability, T/C [2] 84.9% | viability, T/C [3] 99.3% | viability, T/C [4] 59.6% | viability, T/C [5] 91.7% | viability, T/C [6] 71.4% | viability, T/C [7] 114% | viability, T/C [8] 89.5% | viability, T/C [9] 101% | viability, T/C [10] 73.3% | viability, T/C [11] 81.7% | viability, T/C [12] 59% | viability, T/C [13] 99.3% | viability, T/C [14] 91.7% | viability, T/C [15] 97% | viability, T/C [16] 70.2% | viability, T/C [17] 84.7% | viability, T/C [18] 70.9% | viability, T/C [19] 81.2% | viability, T/C [20] 97% | viability, T/C [21] 92.2% | viability, T/C [22] 82.1% | viability, T/C [23] 77.1% | viability, T/C [24] 65% | viability, T/C [25] 96.8% | viability, T/C [26] 103% | viability, T/C [27] 98.5% | viability, T/C [28] 76% | viability, T/C [29] 67.6% | viability, T/C [30] 43% | viability, T/C [31] 114% | viability, T/C [32] 73.7% | viability, T/C [33] 114% | viability, T/C [34] 67% | viability, T/C [35] 36.1% | viability, T/C [36] 32.3%

CCCS(=O)(=O)Nc1ccc(F)c(C(=O)c2c[nH]c3ncc(-c4ccc(Cl)cc4)cc23)c1F + CN(C)c1ccc(Nc2c3ccc(NC(=O)CCN4CCCC4)cc3nc3cc(NC(=O)CCN4CCCC4)ccc23)cc1
8.45 µM: IC50 (second compound 0.1 µM)
inactive: viability, T/C [1] 91.6% | viability, T/C [2] 94.2% | viability, T/C [3] 103% | viability, T/C [4] 66.5% | viability, T/C [5] 72.2% | viability, T/C [6] 60.6% | viability, T/C [7] 78.2% | viability, T/C [8] 83.9% | viability, T/C [9] 95% | viability, T/C [10] 80.3% | viability, T/C [11] 68.1% | viability, T/C [12] 46.9% | viability, T/C [13] 105% | viability, T/C [14] 78.5% | viability, T/C [15] 89.6% | viability, T/C [16] 94.7% | viability, T/C [17] 83.1% | viability, T/C [18] 68.1% | viability, T/C [19] 82.5% | viability, T/C [20] 86% | viability, T/C [21] 83.3% | viability, T/C [22] 80.2% | viability, T/C [23] 79.3% | viability, T/C [24] 60.8% | viability, T/C [25] 97.5% | viability, T/C [26] 101% | viability, T/C [27] 108% | viability, T/C [28] 87.8% | viability, T/C [29] 84.9% | viability, T/C [30] 53.8% | viability, T/C [31] 103% | viability, T/C [32] 111% | viability, T/C [33] 131% | viability, T/C [34] 122% | viability, T/C [35] 115% | viability, T/C [36] 78.4%
> 10 µM: IC50 (second compound 0.0316 µM) | IC50 (second compound 0.316 µM) | IC50 (second compound 1 µM) | IC50 (second compound 3.16 µM) | IC50 (second compound 10 µM)

CC1COCCN1c1cc(C2(O)CC3CCC(C2)O3)c2cnn(-c3ccn[nH]3)c2n1 (stereo not drawn) + Cc1[nH]c2ccc(F)cc2c1-c1nc2c3cccnc3c3ncccc3c2[nH]1
0.622 µM: IC50 (second compound 3.16 µM)
0.355 µM: IC50 (second compound 1 µM)
0.519 µM: IC50 (second compound 0.1 µM)
0.435 µM: IC50 (second compound 10 µM)
0.655 µM: IC50 (second compound 0.316 µM)
0.332 µM: IC50 (second compound 0.0316 µM)
inactive: viability, T/C [1] 87.8% | viability, T/C [2] 67.6% | viability, T/C [3] 50.8% | viability, T/C [4] 37.5% | viability, T/C [5] 19.9% | viability, T/C [6] 15.1% | viability, T/C [7] 85.7% | viability, T/C [8] 84.5% | viability, T/C [9] 62.2% | viability, T/C [10] 33.3% | viability, T/C [11] 21.2% | viability, T/C [12] 18.5% | viability, T/C [13] 85.4% | viability, T/C [14] 94.3% | viability, T/C [15] 69.9% | viability, T/C [16] 37.2% | viability, T/C [17] 22% | viability, T/C [18] 13.3% | viability, T/C [19] 84.4% | viability, T/C [20] 96.7% | viability, T/C [21] 52.9% | viability, T/C [22] 30.7% | viability, T/C [23] 24.4% | viability, T/C [24] 17.7% | viability, T/C [25] 86.4% | viability, T/C [26] 70.5% | viability, T/C [27] 68.6% | viability, T/C [28] 37.1% | viability, T/C [29] 27.4% | viability, T/C [30] 19.6% | viability, T/C [31] 89.2% | viability, T/C [32] 77.5% | viability, T/C [33] 53.3% | viability, T/C [34] 37.6% | viability, T/C [35] 23.6% | viability, T/C [36] 18.2%
